# According to PubChem BioAssay (NCI):
#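 96-well plates; 48 h exposure; 5 concentrations. Endpoints by linear interpolation between flanking doses. Not reached: highest tested concentration assigned. At the GI50, growth is halved. TGI: concentration producing complete growth inhibition.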
# Experiments:
# Assay in all cases: NCI tumour cell line growth inhibition, 48 h
# SNB-75 CNS = tested on: SNB-75 CNS
# M14 melanoma = tested on: M14 melanoma
# HCT-15 colon = tested on: HCT-15 colon
# HOP-62 NSCLC = tested on: HOP-62 NSCLC
# NCI-H522 lung = tested on: NCI-H522 lung
# OVCAR-8 ovarian = tested on: OVCAR-8 ovarian
# SK-MEL-28 melanoma = tested on: SK-MEL-28 melanoma
# SNB-19 CNS = tested on: SNB-19 CNS
# SK-MEL-2 melanoma = tested on: SK-MEL-2 melanoma
# NCI-H226 lung = tested on: NCI-H226 lung
# U251 CNS = tested on: U251 CNS
# NCI-H23 lung = tested on: NCI-H23 lung
# HOP-92 NSCLC = tested on: HOP-92 NSCLC
# SF-539 CNS = tested on: SF-539 CNS
# 786-0 renal = tested on: 786-0 renal
# IGROV1 ovarian = tested on: IGROV1 ovarian
# SN12C renal = tested on: SN12C renal
# T-47D breast = tested on: T-47D breast
# UACC-257 melanoma = tested on: UACC-257 melanoma
# A549 NSCLC = tested on: A549 NSCLC
# NCI-H460 lung = tested on: NCI-H460 lung
# HCC-2998 colon = tested on: HCC-2998 colon
# COLO 205 colon = tested on: COLO 205 colon
# A498 renal = tested on: A498 renal
# MDA-MB-231 breast = tested on: MDA-MB-231 breast
# CCRF-CEM leukemia = tested on: CCRF-CEM leukemia
# RPMI-8226 leukemia = tested on: RPMI-8226 leukemia
# NCI/ADR-RES ovarian = tested on: NCI/ADR-RES ovarian
# HS 578T breast = tested on: HS 578T breast
# MOLT-4 leukemia = tested on: MOLT-4 leukemia
# EKVX NSCLC = tested on: EKVX NSCLC
# SW-620 colon = tested on: SW-620 colon
# DU-145 prostate = tested on: DU-145 prostate
# HL-60(TB) leukemia = tested on: HL-60(TB) leukemia
# PC-3 prostate = tested on: PC-3 prostate
# TK-10 renal = tested on: TK-10 renal
# HCT-116 colon = tested on: HCT-116 colon
# SR leukemia = tested on: SR leukemia
# KM12 colon = tested on: KM12 colon
# OVCAR-3 ovarian = tested on: OVCAR-3 ovarian
# SK-MEL-5 melanoma = tested on: SK-MEL-5 melanoma
# BT-549 breast = tested on: BT-549 breast
# MCF7 breast = tested on: MCF7 breast
# K-562 leukemia = tested on: K-562 leukemia
# HT29 colon = tested on: HT29 colon
# UO-31 renal = tested on: UO-31 renal
# LOX IMVI melanoma = tested on: LOX IMVI melanoma
# CAKI-1 renal = tested on: CAKI-1 renal
# OVCAR-4 ovarian = tested on: OVCAR-4 ovarian
# SF-268 CNS = tested on: SF-268 CNS
# SF-295 CNS = tested on: SF-295 CNS
# RXF 393 renal = tested on: RXF 393 renal
# SK-OV-3 ovarian = tested on: SK-OV-3 ovarian
# OVCAR-5 ovarian = tested on: OVCAR-5 ovarian
# ACHN renal = tested on: ACHN renal
# UACC-62 melanoma = tested on: UACC-62 melanoma
# MDA-MB-435 = tested on: MDA-MB-435
compound,measurement,setting,value
COc1ccc(/C=C/c2cc(=O)cc(/C=C/c3ccc(OC)c(O)c3)o2)cc1O,TGI,SNB-75 CNS,22.6 µM
same,TGI,M14 melanoma,4.45 µM
same,TGI,HCT-15 colon,13.6 µM
same,TGI,HOP-62 NSCLC,12.2 µM
same,TGI,NCI-H522 lung,> 100 µM
same,TGI,OVCAR-8 ovarian,10.1 µM
same,TGI,SK-MEL-28 melanoma,> 100 µM
same,TGI,SNB-19 CNS,> 39 µM
same,TGI,SK-MEL-2 melanoma,7.99 µM
same,TGI,NCI-H226 lung,20.7 µM
same,TGI,U251 CNS,4.21 µM
same,TGI,NCI-H23 lung,5.8 µM
same,TGI,HOP-92 NSCLC,13.5 µM
same,TGI,SF-539 CNS,3.47 µM
same,TGI,786-0 renal,> 34 µM
same,TGI,IGROV1 ovarian,13.3 µM
same,TGI,SN12C renal,> 33.6 µM
same,TGI,T-47D breast,10.8 µM
same,TGI,UACC-257 melanoma,3.78 µM
same,TGI,A549 NSCLC,12.6 µM
same,TGI,NCI-H460 lung,5.73 µM
same,TGI,HCC-2998 colon,3.32 µM
same,TGI,COLO 205 colon,> 61.1 µM
same,TGI,A498 renal,9.43 µM
same,TGI,MDA-MB-231 breast,5.73 µM
same,TGI,CCRF-CEM leukemia,5.91 µM
same,TGI,RPMI-8226 leukemia,1.99 µM
same,TGI,NCI/ADR-RES ovarian,> 24.3 µM
same,TGI,HS 578T breast,> 100 µM
same,TGI,MOLT-4 leukemia,4.9 µM
same,TGI,EKVX NSCLC,13.3 µM
same,TGI,SW-620 colon,> 21.8 µM
same,TGI,DU-145 prostate,> 29.3 µM
same,TGI,HL-60(TB) leukemia,5.02 µM
same,TGI,PC-3 prostate,12.3 µM
same,TGI,TK-10 renal,16.9 µM
same,TGI,HCT-116 colon,7 µM
same,TGI,SR leukemia,2.89 µM
same,TGI,KM12 colon,4.26 µM
same,TGI,OVCAR-3 ovarian,6.51 µM
same,TGI,SK-MEL-5 melanoma,4.98 µM
same,TGI,BT-549 breast,10.3 µM
same,TGI,MCF7 breast,5 µM
same,TGI,K-562 leukemia,> 100 µM
same,TGI,HT29 colon,4.1 µM
same,TGI,UO-31 renal,11.5 µM
same,TGI,LOX IMVI melanoma,3.95 µM
same,TGI,CAKI-1 renal,12 µM
same,TGI,OVCAR-4 ovarian,9.77 µM
same,TGI,SF-268 CNS,> 75.9 µM
same,TGI,SF-295 CNS,13.3 µM
same,TGI,RXF 393 renal,2.96 µM
same,TGI,SK-OV-3 ovarian,21.7 µM
same,TGI,OVCAR-5 ovarian,24 µM
same,TGI,ACHN renal,6.85 µM
same,TGI,UACC-62 melanoma,3.53 µM
COc1cccc(NC(=O)c2ccc(C(F)(F)F)nc2Nc2ccc(Cl)cc2C)c1,GI50,SNB-75 CNS,12.3 µM
same,TGI,SNB-75 CNS,25.5 µM
same,GI50,M14 melanoma,16.9 µM
same,TGI,M14 melanoma,32.5 µM
same,GI50,HCT-15 colon,11 µM
same,TGI,HCT-15 colon,22.9 µM
same,GI50,HOP-62 NSCLC,17.4 µM
same,TGI,HOP-62 NSCLC,32.1 µM
same,GI50,NCI-H522 lung,1.28 µM
same,TGI,NCI-H522 lung,7.18 µM
same,GI50,OVCAR-8 ovarian,11.8 µM
same,TGI,OVCAR-8 ovarian,24.1 µM
same,GI50,SK-MEL-28 melanoma,15 µM
same,TGI,SK-MEL-28 melanoma,28.8 µM
same,GI50,SNB-19 CNS,13.8 µM
same,TGI,SNB-19 CNS,28.7 µM
same,GI50,SK-MEL-2 melanoma,10.3 µM
same,TGI,SK-MEL-2 melanoma,21.9 µM
same,GI50,NCI-H226 lung,14.7 µM
same,TGI,NCI-H226 lung,34.8 µM
same,GI50,U251 CNS,11.9 µM
same,TGI,U251 CNS,24.2 µM
same,GI50,NCI-H23 lung,6.45 µM
same,TGI,NCI-H23 lung,20 µM
same,GI50,HOP-92 NSCLC,4.76 µM
same,TGI,HOP-92 NSCLC,21.4 µM
same,GI50,SF-539 CNS,15.1 µM
same,TGI,SF-539 CNS,30.5 µM
same,GI50,786-0 renal,14.7 µM
same,TGI,786-0 renal,31.4 µM
same,GI50,IGROV1 ovarian,10.5 µM
same,TGI,IGROV1 ovarian,22.2 µM
same,GI50,SN12C renal,12.4 µM
same,TGI,SN12C renal,25.7 µM
same,GI50,T-47D breast,4.31 µM
same,TGI,T-47D breast,25.1 µM
same,GI50,UACC-257 melanoma,13.4 µM
same,TGI,UACC-257 melanoma,26.2 µM
same,GI50,A549 NSCLC,10.6 µM
same,TGI,A549 NSCLC,22.4 µM
same,GI50,NCI-H460 lung,9.01 µM
same,TGI,NCI-H460 lung,24.1 µM
same,GI50,HCC-2998 colon,2.9 µM
same,TGI,HCC-2998 colon,18.7 µM
same,GI50,COLO 205 colon,10.4 µM
same,TGI,COLO 205 colon,25.8 µM
same,GI50,A498 renal,1.65 µM
same,TGI,A498 renal,11.9 µM
same,GI50,MDA-MB-231 breast,10.4 µM
same,TGI,MDA-MB-231 breast,23.3 µM
same,GI50,CCRF-CEM leukemia,11.1 µM
same,TGI,CCRF-CEM leukemia,34.4 µM
same,GI50,RPMI-8226 leukemia,5.54 µM
same,TGI,RPMI-8226 leukemia,28.4 µM
same,GI50,NCI/ADR-RES ovarian,5.6 µM
same,TGI,NCI/ADR-RES ovarian,20.2 µM
same,GI50,HS 578T breast,6.56 µM
same,TGI,HS 578T breast,29.3 µM
same,GI50,MOLT-4 leukemia,10.2 µM
same,TGI,MOLT-4 leukemia,51 µM
same,GI50,EKVX NSCLC,10.2 µM
same,TGI,EKVX NSCLC,24.2 µM
same,GI50,SW-620 colon,14.5 µM
same,TGI,SW-620 colon,28.7 µM
same,GI50,DU-145 prostate,15 µM
same,TGI,DU-145 prostate,28.3 µM
same,GI50,PC-3 prostate,4.36 µM
same,TGI,PC-3 prostate,17.9 µM
same,GI50,HCT-116 colon,10.9 µM
same,TGI,HCT-116 colon,22.9 µM
same,GI50,OVCAR-3 ovarian,4.69 µM
same,TGI,OVCAR-3 ovarian,19.9 µM
same,GI50,SK-MEL-5 melanoma,14.6 µM
same,TGI,SK-MEL-5 melanoma,27.8 µM
same,GI50,BT-549 breast,14.1 µM
same,TGI,BT-549 breast,28.4 µM
same,GI50,MCF7 breast,7.96 µM
same,TGI,MCF7 breast,47.7 µM
same,GI50,K-562 leukemia,13.9 µM
same,TGI,K-562 leukemia,38.8 µM
same,GI50,HT29 colon,10.2 µM
same,TGI,HT29 colon,22.1 µM
same,GI50,UO-31 renal,1.45 µM
same,TGI,UO-31 renal,8.29 µM
same,GI50,LOX IMVI melanoma,11.3 µM
same,TGI,LOX IMVI melanoma,23.4 µM
same,GI50,CAKI-1 renal,2.76 µM
same,TGI,CAKI-1 renal,17.1 µM
same,GI50,OVCAR-4 ovarian,14.9 µM
same,TGI,OVCAR-4 ovarian,28.6 µM
same,GI50,SF-268 CNS,13.8 µM
same,TGI,SF-268 CNS,32.6 µM
same,GI50,SF-295 CNS,12.4 µM
same,TGI,SF-295 CNS,28.6 µM
same,GI50,RXF 393 renal,1.17 µM
same,TGI,RXF 393 renal,15.4 µM
same,GI50,SK-OV-3 ovarian,13.4 µM
same,TGI,SK-OV-3 ovarian,27.8 µM
same,GI50,MDA-MB-435,12.1 µM
same,TGI,MDA-MB-435,27.2 µM
same,GI50,OVCAR-5 ovarian,2.51 µM
same,TGI,OVCAR-5 ovarian,20 µM
same,GI50,UACC-62 melanoma,14.2 µM
same,TGI,UACC-62 melanoma,27.2 µM
